Assay results as given in US10881110B2, “Herbicidal compositions comprising isoxazolo[5,4-b]pyridines” (BASF SE, priority 2014, dated 2021).
“And” between values parts separate entries of the source, which are not always exact repeats. Equal values may be shown once. Read-outs that look alike come from different tables or passages of the source.

Experiments:
POLCO = assay: greenhouse post-emergence herbicidal test; assay type: in vivo, Polygonum convolvulus; design: key to herbicidal activity against POLCO found: rating on a scale from 0 to 100; details: post emergence
Method in brief: (§1)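 Herbicidal activity scored on a 0 (no damage) to 100 (plants destroyed) scale, usually 20 days after water-based spraying of 1–15 cm plants grown in loamy sand at 10-25 °C or 20-35 °C depending on species. Components were applied from 10% emulsion concentrates; Colby's E=X+Y−(X·Y/100) gives the additive expectation.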

VIOAR = assay: greenhouse post-emergence herbicidal test; assay type: in vivo, Viola arvensis; design: key to herbicidal activity against VIOAR found / herbicidal activity against VIOLA found: rating on a scale from 0 to 100; details: post emergence; for pest or weed control at 62.5 g/ha / pest or weed control at 125 g/ha: Viola arvensis, post-emergence, read-out: herbicidal activity against VIOAR found
Method in brief: as §1

[1] = application rate a.i.: I.1 62.5 g/ha, B.84 (paraquat-dichloride) 17.5 g/ha, alone or as mixture (composition 1.84)
[2] = g/ha a.i.: I.1 125, B.63 1, mixture 125+1

## O=C(O)c1cc(C2CC2)nc2onc(C3CC3)c12 [I.1]
POLCO; I.1 15.62 g/ha, B.89 12.5 g/ha a.i.
  herbicidal activity against POLCO found: 0
POLCO; I.1 62.5 g/ha, B.103 7.5 g/ha a.i.
  herbicidal activity against POLCO found: 40
POLCO; I.1 62.5 g/ha, B.103 15 g/ha a.i.
  herbicidal activity against POLCO found: 40
POLCO; I.1 62.5 g/ha, B.167 62.5 g/ha a.i.
  herbicidal activity against POLCO found: 40
POLCO; I.1 62.5 g/ha, B.167 125 g/ha a.i.
  herbicidal activity against POLCO found: 40
POLCO; a.i. g/ha: I.1 15.6, B.190 62.5, 20 days after treatment
  herbicidal activity against POLCO found: 30%
POLCO; a.i. g/ha: I.1 15.6, B.67 125, 20 days after treatment
  herbicidal activity against POLCO found: 0%
POLCO; a.i. g/ha: I.1 20.8, B.67 62.5, 20 days after treatment
  herbicidal activity against POLCO found: 30%
POLCO; a.i. g/ha: I.1 20.8, B.79 25, 20 days after treatment
  herbicidal activity against POLCO found: 50%
POLCO; a.i. g/ha: I.1 31.25, B.190 62.5, 20 days after treatment
  herbicidal activity against POLCO found: 50%
POLCO; a.i. g/ha: I.1 31.25, B.67 125, 20 days after treatment
  herbicidal activity against POLCO found: 0%
POLCO; a.i. g/ha: I.1 31.25, bentazon Na 125, 20 days after treatment
  herbicidal activity against POLCO found: 50%
POLCO; a.i. g/ha: I.1 62.5, B.67 62.5, 20 days after treatment
  herbicidal activity against POLCO found: 65%
POLCO; a.i. g/ha: I.1 62.5, B.79 25, 20 days after treatment
  herbicidal activity against POLCO found: 75%
POLCO; application rate a.i.: I.1 31.25 g/ha, B.100 (isoxaflutole) 12.5 g/ha, alone or as mixture (composition 1.100)
  herbicidal activity against POLCO found: 70
POLCO; application rate a.i.: I.1 31.25 g/ha, B.139 (pyroxasulfone) 12.5 g/ha, alone or as mixture (composition 1.139)
  herbicidal activity against POLCO found: 65
POLCO; application rate a.i.: I.1 31.25 g/ha, B.40 (imazethapyr) 7.5 g/ha, alone or as mixture (composition 1.40)
  herbicidal activity against POLCO found: 20
POLCO; application rate a.i.: I.1 62.5 g/ha, B.107 (topramezone) 6 g/ha, alone or as mixture (composition 1.107)
  herbicidal activity against POLCO found: 75
POLCO; [1]
  herbicidal activity against POLCO found: 90
POLCO; applied alone at 31.25 g/ha a.i.
  herbicidal activity against POLCO found: 65
POLCO; applied alone at 62.5 g/ha a.i.
  herbicidal activity against POLCO found: 90
POLCO; applied alone at 125 g/ha a.i.
  herbicidal activity against POLCO found: 85
POLCO; g/ha a.i.: I.1 31.25, B.63 1, mixture 31.25+1
  herbicidal activity against POLCO found: 30
POLCO; g/ha a.i.: I.1 125, B.63 0.5, mixture 125+0.5
  herbicidal activity against POLCO found: 80
POLCO; [2]
  herbicidal activity against POLCO found: 80
VIOAR; I.1 alone 62.5 g/ha a.i.
  pest or weed control at 62.5 g/ha: 30%
VIOAR; 62.5 g/ha a.i.
  pest or weed control at 62.5 g/ha: 0%
VIOAR; 125 g/ha a.i.
  pest or weed control at 125 g/ha: 90%
VIOAR; single active, 62.5 g/ha a.i.
  pest or weed control at 62.5 g/ha: 20%
  herbicidal activity against VIOLA found: 20
VIOAR; single active, 125 g/ha a.i.
  pest or weed control at 125 g/ha: 30%
  herbicidal activity against VIOLA found: 30
VIOAR; 6 days after treatment, g/ha a.i.: I.1 31.25, B.96 35, mixture 31.25+35
  herbicidal activity against VIOAR found: 0
VIOAR; 6 days after treatment, g/ha a.i.: I.1 31.25, B.96 70, mixture 31.25+70
  herbicidal activity against VIOAR found: 0
VIOAR; 6 days after treatment, g/ha a.i.: I.1 31.25, B.96 140, mixture 31.25+140
  herbicidal activity against VIOAR found: 0
VIOAR; 6 days after treatment, g/ha a.i.: I.1 31.25, naptalam 200, mixture 31.25+200
  herbicidal activity against VIOAR found: 0
VIOAR; 6 days after treatment, g/ha a.i.: I.1 62.5, B.96 35, mixture 62.5+35
  herbicidal activity against VIOAR found: 0
VIOAR; 6 days after treatment, g/ha a.i.: I.1 62.5, B.96 70, mixture 62.5+70
  herbicidal activity against VIOAR found: 0
VIOAR; 6 days after treatment, g/ha a.i.: I.1 62.5, B.96 140, mixture 62.5+140
  herbicidal activity against VIOAR found: 0
VIOAR; 6 days after treatment, g/ha a.i.: I.1 62.5, naptalam 100, mixture 62.5+100
  herbicidal activity against VIOAR found: 0
VIOAR; 6 days after treatment, g/ha a.i.: I.1 62.5, naptalam 200, mixture 62.5+200
  herbicidal activity against VIOAR found: 0
VIOAR; I.1 62.5 g/ha, B.89 12.5 g/ha a.i.
  herbicidal activity against VIOAR found: 25
VIOAR; application rate a.i.: I.1 31.25 g/ha, B.84 (paraquat-dichloride) 17.5 g/ha, alone or as mixture (composition 1.84)
  herbicidal activity against VIOAR found: 40
VIOAR; application rate a.i.: I.1 62.5 g/ha, B.100 (isoxaflutole) 12.5 g/ha, alone or as mixture (composition 1.100)
  herbicidal activity against VIOAR found: 30
VIOAR; application rate a.i.: I.1 62.5 g/ha, B.30 (imazamox) 3.75 g/ha, alone or as mixture (composition 1.030)
  herbicidal activity against VIOAR found: 0
VIOAR; [1]
  herbicidal activity against VIOAR found: 40
VIOAR; applied alone at 125 g/ha a.i.
  herbicidal activity against VIOAR found: 60 and 80
VIOAR; g/ha a.i.: I.1 62.5, B.52 2.5, mixture 62.5+2.5
  herbicidal activity against VIOAR found: 0
VIOAR; g/ha a.i.: I.1 62.5, B.63 0.5, mixture 62.5+0.5
  herbicidal activity against VIOAR found: 0
VIOAR; g/ha a.i.: I.1 125, B.52 2.5, mixture 125+2.5
  herbicidal activity against VIOAR found: 0
VIOAR; g/ha a.i.: I.1 125, B.52 5, mixture 125+5
  herbicidal activity against VIOAR found: 0
VIOAR; [2]
  herbicidal activity against VIOAR found: 0
VIOAR; single active, 15.625 g/ha a.i.
  herbicidal activity against VIOLA found: 0
